Tests used:
common ragweed (AMBEL) = assay: Test 2 field trial, preemergence; type: in vivo, Ambrosia artemisiifolia; parameters: scale not given here
Source text: (§1) Corn seeds (hybrid ‘Pioneer 31G96’) were planted in mid spring season, 3.8 cm deep in a clay loam soil having 2% organic matter and a pH of 6.6. Plots were 6.1 m long by 3.0 m wide with rows spaced 76 cm apart. Seeds were spaced 15 cm apart within the rows. The field was managed using conventional tillage practices. […] A few of the weed species could not be evaluated at every timing. […] Results are the means of the three replicates.

redroot pigweed (AMARE) = assay: Test 2 field trial, preemergence; type: in vivo, Amaranthus retroflexus; parameters: scale not given here
Source text: as §1

shepherd's purse (CAPBP) = assay: Test 9 field trial, emerged weeds before corn planting; type: in vivo, Capsella bursa-pastoris; conditions: g a.i./ha: Cpd 2 100, Glyphosate 1540, Paraquat 1150
Method: (§2) Corn seeds (hybrid ‘Pioneer 34M91 RR’) were planted in mid spring season, about 3.8 cm deep in a silty clay loam soil having a pH of 6.7. Plots were 9.1 m long by 3.0 m. The field was managed using no-till practices. […] Compound 2 and paraquat treatments, alone and in combination, also included a surfactant. Glyphosate, alone and with Compound 2, included ammonium sulfate in the treatment mixture. […] The effects on the weeds in the treated plots and untreated control plots were recorded 7, 14, 23, 30 and 57 days after application. Most of the weed species could not be evaluated at every timing. Corn response was only evaluated 57 days after application. […] Results are the means of the three replicates.

[1] = test system: common lambsquarters (CHEAL); assay: as above; type: in vivo, Chenopodium album; conditions: 57 DAA; g a.i./ha: Cpd 2 100, Glyphosate 1540, Paraquat 1150
Method: as §2

common blackjack (BIDPI) = assay: Test 12 field trial, preemergence; type: in vivo, Bidens pilosa; parameters: scale not given here; conditions: Cpd 2 or Cpd 1 62 g a.i./ha, Diuron 2000 g a.i./ha
Source text: In early-mid spring season, corn seeds (hybrid ‘Pioneer 3041’) were planted 5 cm deep and sugarcane nodes (variety RB-72.454) were planted 10 cm deep in separate plots in a clay soil having 2.6% organic matter and a pH of 5.6. Plots were 24 m long by 1.5 m wide with rows spaced 80 cm (corn) or 140 cm (sugarcane) apart. Corn seeds were spaced 15 cm apart and sugarcane nodes were spaced 10 cm apart within the rows. At the same time, weed seeds were broadcast over the surface of separate plots without a crop, one weed species per plot. The weed plots were rotary tilled to incorporate the weed seeds to a variety of depths. The field was managed using conventional tillage practices.

wild mustard (SINAR) [2] = assay: Test 22 growth chamber, postemergence; type: in vivo, Sinapis arvensis; conditions: 25 DAA
Method: (§3) A test was conducted to evaluate the effects on winter barley (HORVW, Hordeum vulgare L.), winter wheat (TRZAW, Triticum aestivum L.), and several weed species of mixtures of Compound 2 with the commercial herbicides (2,4-dichlorophenoxy)acetic acid (2,4-D) and (4-chloro-2-methylphenoxy)acetic acid (MCPA), auxin mimics. […] Plants were treated postemergence at the 2-4 leaf growth stage, except KCHSC, SASKR and STEME which were in the 4-8 leaf growth stage. Each treatment was replicated one time. […] Plants were watered as needed. […] Results are from single replicates.

galium (GALAP) = assay: Test 22 growth chamber, postemergence; type: in vivo, Galium aparine; conditions: 25 DAA
Method: as §3

winter wheat (TRZAW) = assay: Test 23 growth chamber, postemergence; type: in vivo, Triticum aestivum; conditions: 21 DAA
Method: as §3, with “stage,” for “stage, except KCHSC, SASKR”, “each” for “STEME which were in the 4-8 leaf growth stage. Each”, “three times.” for “one time.”, “means of the three” for “from single”

wild chamomile (MATCH) = assay: Test 23 growth chamber, postemergence; type: in vivo, Matricaria chamomilla; conditions: 21 DAA
Method: as §3, with “stage,” for “stage, except KCHSC, SASKR”, “each” for “STEME which were in the 4-8 leaf growth stage. Each”, “three times.” for “one time.”, “means of the three” for “from single”

field violet (VIOAR) [3] = assay: Test 23 growth chamber, postemergence; type: in vivo, Viola arvensis; conditions: 21 DAA
Method: as §3, with “stage,” for “stage, except KCHSC, SASKR”, “each” for “STEME which were in the 4-8 leaf growth stage. Each”, “three times.” for “one time.”, “means of the three” for “from single”

field violet (VIOAR) [4] = assay: Test 21 growth chamber, postemergence; type: in vivo, Viola arvensis; conditions: 19 DAA
Method: A test was conducted to evaluate the effects on winter barley (HORVW, Hordeum vulgare L.), winter wheat (TRZAW, Triticum aestivum L.), and several weed species, of mixtures of Compound 2 with the commercial herbicide (2,4-dichlorophenoxy)acetic acid (2,4-D), an auxin mimic. […] Plants were treated postemergence at the 2-4 leaf growth stage, and each treatment was replicated one time. […] Plants were watered as needed. […] Results are from single replicates.

wild mustard (SINAR) [5] = assay: Test 23 growth chamber, postemergence; type: in vivo, Sinapis arvensis; conditions: 21 DAA
Method: as §3, with “stage,” for “stage, except KCHSC, SASKR”, “each” for “STEME which were in the 4-8 leaf growth stage. Each”, “three times.” for “one time.”, “means of the three” for “from single”

[6] = 18 DAA, g a.i./ha: Cpd 2 25, Atrazine 250
[7] = 18 DAA, g a.i./ha: Cpd 2 50, Atrazine 500
[8] = 18 DAA, g a.i./ha: Cpd 2 75, Atrazine 750
[9] = 18 DAA, g a.i./ha: Cpd 2 100, Atrazine 1000
[10] = 18 DAA, g a.i./ha: Cpd 2 150, Atrazine 1500
[11] = 28 DAA, g a.i./ha: Cpd 2 25, Atrazine 250
[12] = 28 DAA, g a.i./ha: Cpd 2 50, Atrazine 500
[13] = 28 DAA, g a.i./ha: Cpd 2 75, Atrazine 750
[14] = 28 DAA, g a.i./ha: Cpd 2 100, Atrazine 1000
[15] = 28 DAA, g a.i./ha: Cpd 2 150, Atrazine 1500
[16] = 55 DAA, g a.i./ha: Cpd 2 25, Atrazine 250
[17] = 55 DAA, g a.i./ha: Cpd 2 50, Atrazine 500
[18] = 55 DAA, g a.i./ha: Cpd 2 75, Atrazine 750
[19] = 55 DAA, g a.i./ha: Cpd 2 100, Atrazine 1000
[20] = 55 DAA, g a.i./ha: Cpd 2 150, Atrazine 1500
[21] = 2,4-D or MCPA alone 250 g a.i./ha

CCNc1nc(Cl)nc(NC(C)C)n1 [Atrazine, atrazine, reference compound]
AMBEL Obs (common ragweed (AMBEL); [6]): 20
AMBEL Obs (common ragweed (AMBEL); [7]): 43
AMBEL Obs (common ragweed (AMBEL); [8]): 57
AMBEL Obs (common ragweed (AMBEL); [9]): 40
AMBEL Obs (common ragweed (AMBEL); [10]): 48
AMBEL Obs (common ragweed (AMBEL); [11]): 18
AMBEL Obs (common ragweed (AMBEL); [12]): 69
AMBEL Obs (common ragweed (AMBEL); [13]): 83
AMBEL Obs (common ragweed (AMBEL); [14]): 86
AMBEL Obs (common ragweed (AMBEL); [15]): 98
AMBEL Obs (common ragweed (AMBEL); [16]): 12
AMBEL Obs (common ragweed (AMBEL); [17]): 22
AMBEL Obs (common ragweed (AMBEL); [18]): 63
AMBEL Obs (common ragweed (AMBEL); [19]): 72
AMBEL Obs (common ragweed (AMBEL); [20]): 90
AMARE Obs (redroot pigweed (AMARE); [11]): 72
AMARE Obs (redroot pigweed (AMARE); [12]): 97
AMARE Obs (redroot pigweed (AMARE); [13]): 90
AMARE Obs (redroot pigweed (AMARE); [14]): 100
AMARE Obs (redroot pigweed (AMARE); [15]): 100
AMARE Obs (redroot pigweed (AMARE); [16]): 95
AMARE Obs (redroot pigweed (AMARE); [17]): 99
AMARE Obs (redroot pigweed (AMARE); [18]): 100
AMARE Obs (redroot pigweed (AMARE); [19]): 100
AMARE Obs (redroot pigweed (AMARE); [20]): 100

O=C(O)CNCP(=O)(O)O [Glyphosate]
CAPBP Obs (shepherd's purse (CAPBP); 7 DAA): 52%
CAPBP Obs (shepherd's purse (CAPBP); 14 DAA): 73%
CAPBP Obs (shepherd's purse (CAPBP); 23 DAA): 88%
CAPBP Obs (shepherd's purse (CAPBP); 30 DAA): 98%
CAPBP Obs (shepherd's purse (CAPBP); 57 DAA): 100%
CHEAL Obs [1]: 0%

Nc1nc(C2CC2)nc(C(=O)O)c1Cl [Compound 1, 6-amino-5-chloro-2-cyclopropyl-4-pyrimidinecarboxylic acid]
BIDPI Obs (common blackjack (BIDPI); 15 DAA): 70
BIDPI Obs (common blackjack (BIDPI); 29 DAA): 80
BIDPI Obs (common blackjack (BIDPI); 48 DAA): 80
BIDPI Obs (common blackjack (BIDPI); 61 DAA): 60

COC(=O)c1nc(C2CC2)nc(N)c1Cl [Compound 2, methyl 6-amino-5-chloro-2-cyclopropyl-4-pyrimidinecarboxylate]
AMBEL Obs (common ragweed (AMBEL); [6]): 18
AMBEL Obs (common ragweed (AMBEL); [7]): 27
AMBEL Obs (common ragweed (AMBEL); [8]): 53
AMBEL Obs (common ragweed (AMBEL); [9]): 70
AMBEL Obs (common ragweed (AMBEL); [10]): 70
AMBEL Obs (common ragweed (AMBEL); [11]): 10
AMBEL Obs (common ragweed (AMBEL); [12]): 48
AMBEL Obs (common ragweed (AMBEL); [13]): 70
AMBEL Obs (common ragweed (AMBEL); [14]): 88
AMBEL Obs (common ragweed (AMBEL); [15]): 97
AMBEL Obs (common ragweed (AMBEL); [16]): 10
AMBEL Obs (common ragweed (AMBEL); [17]): 33
AMBEL Obs (common ragweed (AMBEL); [18]): 42
AMBEL Obs (common ragweed (AMBEL); [19]): 77
AMBEL Obs (common ragweed (AMBEL); [20]): 93
Postemergence SINAR Obs (wild mustard (SINAR) [2]; Cpd 2 alone 4 g a.i./ha): 60
Postemergence SINAR Obs (wild mustard (SINAR) [2]; Cpd 2 alone 8 g a.i./ha): 65
Postemergence SINAR Obs (wild mustard (SINAR) [2]; Cpd 2 alone 16 g a.i./ha): 65
BIDPI Obs (common blackjack (BIDPI); 15 DAA): 60
BIDPI Obs (common blackjack (BIDPI); 29 DAA): 80
BIDPI Obs (common blackjack (BIDPI); 48 DAA): 80
BIDPI Obs (common blackjack (BIDPI); 61 DAA): 70
Postemergence GALAP Obs (galium (GALAP); Cpd 2 alone 4 g a.i./ha): 65
Postemergence GALAP Obs (galium (GALAP); Cpd 2 alone 8 g a.i./ha): 90
Postemergence GALAP Obs (galium (GALAP); Cpd 2 alone 16 g a.i./ha): 100
CAPBP Obs (shepherd's purse (CAPBP); 7 DAA): 23%
CAPBP Obs (shepherd's purse (CAPBP); 14 DAA): 17%
CAPBP Obs (shepherd's purse (CAPBP); 23 DAA): 7%
CAPBP Obs (shepherd's purse (CAPBP); 30 DAA): 0%
CAPBP Obs (shepherd's purse (CAPBP); 57 DAA): 0%
Postemergence TRZAW Obs (winter wheat (TRZAW); Cpd 2 alone 4 g a.i./ha): 35
Postemergence TRZAW Obs (winter wheat (TRZAW); Cpd 2 alone 8 g a.i./ha): 38
Postemergence TRZAW Obs (winter wheat (TRZAW); Cpd 2 alone 16 g a.i./ha): 43
Postemergence MATCH Obs (wild chamomile (MATCH); Cpd 2 alone 4 g a.i./ha): 52
Postemergence MATCH Obs (wild chamomile (MATCH); Cpd 2 alone 8 g a.i./ha): 63
Postemergence MATCH Obs (wild chamomile (MATCH); Cpd 2 alone 16 g a.i./ha): 75
CHEAL Obs [1]: 95%
Postemergence VIOAR Obs (field violet (VIOAR) [3]; Cpd 2 alone 4 g a.i./ha): 60
Postemergence VIOAR Obs (field violet (VIOAR) [3]; Cpd 2 alone 8 g a.i./ha): 63
Postemergence VIOAR Obs (field violet (VIOAR) [3]; Cpd 2 alone 16 g a.i./ha): 72
Postemergence VIOAR Obs (field violet (VIOAR) [4]; Cpd 2 alone 16 g a.i./ha): 60
Postemergence SINAR Obs (wild mustard (SINAR) [5]; Cpd 2 alone 4 g a.i./ha): 43
Postemergence SINAR Obs (wild mustard (SINAR) [5]; Cpd 2 alone 8 g a.i./ha): 53
Postemergence SINAR Obs (wild mustard (SINAR) [5]; Cpd 2 alone 16 g a.i./ha): 55
AMARE Obs (redroot pigweed (AMARE); [11]): 30
AMARE Obs (redroot pigweed (AMARE); [12]): 90
AMARE Obs (redroot pigweed (AMARE); [13]): 98
AMARE Obs (redroot pigweed (AMARE); [14]): 93
AMARE Obs (redroot pigweed (AMARE); [15]): 82
AMARE Obs (redroot pigweed (AMARE); [16]): 100
AMARE Obs (redroot pigweed (AMARE); [17]): 100
AMARE Obs (redroot pigweed (AMARE); [18]): 100
AMARE Obs (redroot pigweed (AMARE); [19]): 100
AMARE Obs (redroot pigweed (AMARE); [20]): 100

O=C(O)COc1ccc(Cl)cc1Cl [2,4-D, (2,4-dichlorophenoxy)acetic acid]
Postemergence SINAR Obs (wild mustard (SINAR) [2]; [21]): 75
Postemergence GALAP Obs (galium (GALAP); [21]): 30
Postemergence TRZAW Obs (winter wheat (TRZAW); [21]): 20
Postemergence MATCH Obs (wild chamomile (MATCH); [21]): 60
Postemergence VIOAR Obs (field violet (VIOAR) [3]; [21]): 63
Postemergence VIOAR Obs (field violet (VIOAR) [4]; 2,4-D alone 125 g a.i./ha): 0
Postemergence VIOAR Obs (field violet (VIOAR) [4]; 2,4-D alone 250 g a.i./ha): 20
Postemergence SINAR Obs (wild mustard (SINAR) [5]; [21]): 65

Reference: patent US20100285959A1, “HERBICIDAL MIXTURES” (priority 2006, published 2010)
